# What was measured:
# Assay type in all cases: in vivo
# [1] = test system: barnyardgrass (Echinochloa crus-galli); assay: Test A pre-/postemergence plant response
# In short: (§1)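 Seeds in loam soil/sand blend treated preemergence by directed soil spray, with simultaneous postemergence spray on 2–10 cm plants at one- to two-leaf stage; compounds in non-phytotoxic solvent with surfactant. Injury visually rated versus untreated controls after about 10 days in greenhouse, 0 (no effect) to 100 (complete control).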
# corn (Zea mays) = assay: Test A pre-/postemergence plant response
# In short: as §1
# [2] = test system: giant foxtail (Setaria faberi); assay: Test A pre-/postemergence plant response
# In short: as §1
# [3] = test system: large crabgrass (Digitaria sanguinalis); assay: Test A pre-/postemergence plant response
# In short: as §1
# [4] = test system: morningglory (Ipomoea coccinea); assay: Test A pre-/postemergence plant response
# In short: as §1
# [5] = test system: pigweed (Amaranthus retroflexus); assay: Test A pre-/postemergence plant response
# In short: as §1
# [6] = test system: velvetleaf (Abutilon theophrasti); assay: Test A pre-/postemergence plant response
# In short: as §1
# [7] = test system: canarygrass (Phalaris minor); assay: Test B postemergence plant response; settings: for Plant response rating, Canarygrass: Postemergence
# In short: (§2)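 Postemergence greenhouse test; plants at 2 to 18 cm (1- to 4-leaf stage) given formulated test chemical, held 13 to 15 days, then visually rated against untreated controls on a 0 (no effect) to 100 (complete control) scale; dash means no result.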
# [8] = test system: chickweed (Stellaria media); assay: Test B postemergence plant response; settings: for Plant response rating, Chickweed: Postemergence
# In short: as §2
# [9] = test system: windgrass (Apera spica-venti); assay: Test B postemergence plant response; settings: for Plant response rating, Windgrass: Postemergence
# In short: as §2
# [10] = test system: winter barley (Hordeum vulgare); assay: Test B postemergence plant response; settings: for Plant response rating, Barley: Postemergence
# In short: as §2
# [11] = test system: barnyardgrass (Echinochloa crus-galli); assay: Test B flooded paddy test plant response; settings: Flood (flooded paddy test), scale 0 to 100, 0 no effect, 100 complete control
# In short: (§3)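 Compounds were added directly to paddy water over 2-leaf-stage plants in pots flooded 3 cm above soil, water depth maintained. Visual injury scored against controls after 13 to 15 days in greenhouse, 0 (none) to 100 (complete control); dash indicates no result.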
# [12] = test system: ducksalad (Heteranthera limosa); assay: Test B flooded paddy test plant response; settings: Flood (flooded paddy test), scale 0 to 100, 0 no effect, 100 complete control
# In short: as §3
# rice (Oryza sativa) = assay: Test B flooded paddy test plant response; settings: Flood (flooded paddy test), scale 0 to 100, 0 no effect, 100 complete control
# In short: as §3
# [13] = test system: umbrella sedge (Cyperus difformis); assay: Test B flooded paddy test plant response; settings: Flood (flooded paddy test), scale 0 to 100, 0 no effect, 100 complete control
# In short: as §3
# [14] = Postemergence, 31 g ai/ha, 0 to 100 scale (0 no effect, 100 complete control)
# [15] = Postemergence, 125 g ai/ha, 0 to 100 scale, 0 no effect, 100 complete control
# [16] = Preemergence, 31 g ai/ha, 0 to 100 scale, 0 is no effect, 100 is complete control
# [17] = Preemergence, 125 g ai/ha, 0 to 100 scale (0 no effect, 100 complete control)
# [18] = 8 g ai/ha, postemergence, 0-100 scale
# [19] = 31 g ai/ha, scale 0 to 100, 0 no effect, 100 complete control
compound,measurement,setting,value
CCc1cc(-c2ccc(F)cc2)nn1-c1c(O)cnn(C)c1=O [Compound 25],"Plant response rating, Barnyardgrass",[1]; [14],80
same,"Plant response rating, Barnyardgrass",[1]; [15],100
same,"Plant response rating, Barnyardgrass",[1]; [16],50
same,"Plant response rating, Barnyardgrass",[1]; [17],100
same,"Plant response rating, Corn",corn (Zea mays); [14],20
same,"Plant response rating, Corn",corn (Zea mays); [15],80
same,"Plant response rating, Corn",corn (Zea mays); [16],0
same,"Plant response rating, Corn",corn (Zea mays); [17],50
same,"Plant response rating, Foxtail, Giant",[2]; [14],90
same,"Plant response rating, Foxtail, Giant",[2]; [15],100
same,"Plant response rating, Foxtail, Giant",[2]; [16],40
same,"Plant response rating, Foxtail, Giant",[2]; [17],100
same,"Plant response rating, Crabgrass, Large",[3]; [14],60
same,"Plant response rating, Crabgrass, Large",[3]; [15],90
same,"Plant response rating, Crabgrass, Large",[3]; [16],20
same,"Plant response rating, Crabgrass, Large",[3]; [17],90
same,"Plant response rating, Morningglory",[4]; [14],0
same,"Plant response rating, Morningglory",[4]; [15],0
same,"Plant response rating, Morningglory",[4]; [16],0
same,"Plant response rating, Morningglory",[4]; [17],0
same,"Plant response rating, Pigweed",[5]; [14],0
same,"Plant response rating, Pigweed",[5]; [15],0
same,"Plant response rating, Pigweed",[5]; [16],0
same,"Plant response rating, Pigweed",[5]; [17],0
same,"Plant response rating, Velvetleaf",[6]; [14],0
same,"Plant response rating, Velvetleaf",[6]; [15],0
same,"Plant response rating, Velvetleaf",[6]; [16],0
same,"Plant response rating, Velvetleaf",[6]; [17],0
same,Canarygrass plant response rating,[7]; [18],0
same,"Plant response rating, Canarygrass","[7]; 16 g ai/ha, scale 0 to 100",0
same,"Plant response rating, Canarygrass",[7]; [19],0
same,"Plant response rating, Canarygrass","[7]; 62 g ai/ha, scale 0 to 100",10
same,Chickweed plant response rating,[8]; [18],0
same,"Plant response rating, Chickweed","[8]; 16 g ai/ha, scale 0 to 100",0
same,"Plant response rating, Chickweed",[8]; [19],0
same,"Plant response rating, Chickweed","[8]; 62 g ai/ha, scale 0 to 100",0
same,Windgrass plant response rating,[9]; [18],40
same,"Plant response rating, Windgrass","[9]; 16 g ai/ha, scale 0 to 100",60
same,"Plant response rating, Windgrass",[9]; [19],60
same,"Plant response rating, Windgrass","[9]; 62 g ai/ha, scale 0 to 100",98
same,Barley plant response rating,[10]; [18],0
same,"Plant response rating, Barley","[10]; 16 g ai/ha, scale 0 to 100, 0 no effect, 100 complete control",0
same,"Plant response rating, Barley",[10]; [19],0
same,"Plant response rating, Barley","[10]; 62 g ai/ha, scale 0 to 100",0
same,"Plant response rating, Barnyardgrass",[11]; 62 g ai/ha,0
same,"Plant response rating, Barnyardgrass",[11]; 250 g ai/ha,0
same,"Plant response rating, Ducksalad",[12]; 62 g ai/ha,0
same,"Plant response rating, Ducksalad",[12]; 250 g ai/ha,0
same,"Plant response rating, Rice",rice (Oryza sativa); 62 g ai/ha,0
same,"Plant response rating, Rice",rice (Oryza sativa); 250 g ai/ha,0
same,"Plant response rating, Sedge, Umbrella",[13]; 62 g ai/ha,0
same,"Plant response rating, Sedge, Umbrella",[13]; 250 g ai/ha,0
